Residues, ends and D or L forms follow the SMILES beside them. *: point of attachment. X1 = OC[C@H]1O[C@@H](O[C@H]2[C@H](O)[C@@H](O)[C@H](*)O[C@@H]2CO)[C@H](O)[C@@H](O)[C@H]1O

Usually Kd stands for the constant that tells how readily two partners part at equilibrium. The term Tmax denotes the time at which the peak concentration occurs. As usually defined, the half-life is the time in which the quantity being followed falls by half.

For data set [1], the target named is Mas receptor (Homo sapiens) (UniProt P04201). As to conditions: cited from earlier work.
Mas receptor (Homo sapiens), sequence (P04201 whole entry): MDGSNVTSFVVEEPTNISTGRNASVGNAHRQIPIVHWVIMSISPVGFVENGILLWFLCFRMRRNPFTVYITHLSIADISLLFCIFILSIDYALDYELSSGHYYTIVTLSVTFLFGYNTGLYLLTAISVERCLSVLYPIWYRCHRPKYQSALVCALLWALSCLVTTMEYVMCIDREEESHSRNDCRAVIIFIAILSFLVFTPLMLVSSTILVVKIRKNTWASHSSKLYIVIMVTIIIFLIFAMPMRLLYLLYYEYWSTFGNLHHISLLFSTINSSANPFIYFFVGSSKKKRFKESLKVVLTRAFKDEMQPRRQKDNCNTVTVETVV
Data set [2] concerns cancer-induced bone loss. Description: Radiographic analysis of femur bone integrity (bone score). In kind it is in vivo, mouse. The source says:
Radiographic images of mice’s right femurs with established (CIBP) or sham were captured using a Faxitron machine. Bone loss was rated and evaluated using a bone score scale by a blinded observer where 0 = normal healthy bone; 1 = 1–3 lesions; 2 = 4 to 6 lesions; 3 = uni-cortical bone fractures; and 4 = bicortical bone fractures.
A digital Faxitron machine (Ultrafocus; Faxitron Bioptics, Tucson, AZ) was used to image the femurs of all mice (all groups in chronic studies) on days 0 (baseline), 7, 10, and 14 post-surgery to determine an average bone score and to exclude the data for any mice with full cortical fracture before day 14. Two blinded observers evaluated the images using a 5-point bone rating scale. Mice were anesthetized with 80 mg/kg ketamine to 12 mg/kg xylazine (in a 10 mL/kg volume) on day 0 before the surgery, D7, D10, and D14, and radiographs were acquired. The bone scoring scale was as follows: 0 = normal bone, 1 = 1–3 lesions with no fracture, 2 = 4+ lesions with no fracture, 3 = uni-cortical, full thickness fracture, and 4 = bicortical, full thickness fracture. Animals with bicortical, full fractures were euthanized as our IACUC protocol measures dictated.

In data set [3] the test system is naïve mice. To be noted: 1 mg/kg i.p., 30, 60, 90 and 120 min after treatment, 10 rpm, cut-off 180 s, vs vehicle.
Method: The rotarod test is widely used to evaluate the motor coordination of rodents, and we used it to determine the motor effect of PNA6 to prevent interpretation of behavior as a false positive. Four days before testing, naïve mice were trained to acclimate to the rotating rod (LE8505 Rota-Rod, Panlab Harvard Apparatus, Spain) at a constant speed of 10 rpm. A maximal cut-off time of 180 s was used to prevent exhaustion. On the day of testing, mice were baselined and re-evaluated at 30, 60, 90, and 120 min after treatment.
For data set [4] the following is noted: no reference given, cited from earlier work. The text has this: Our team has taken a novel approach to treating CIPN by taking advantage of our extensive experience with the G-protein linked Mas receptor and its agonist Ang-(1-7) to develop a platform of glycosylated Ang-(1-7) Mas receptor agonists including PNA5 and PNA6 that have outstanding brain penetration, enhanced bioavailability, decreased brain and peripheral inflammation, improved cerebral blood flow, and restored cognitive function in our preclinical vascular dementia and TBI animal models. Activation of Mas decreases ROS and brain inflammation, increases cerebral circulation, increases inductio ...

Data set [5] is described as follows: in vivo. As to conditions: male, Sprague Dawley, rat, serum, iv, 10 mg/kg.
Method: To directly compare the in vivo lifetime and the ability of PNA6 to cross the blood–brain barrier (BBB), we devised a methodology that combines simultaneous blood sampling with microdialysis. PNA6 was administered via a single tail vein injection at a dosage of 10 mg/kg. Blood samples were collected at specific time intervals relative to the injection, including t = −10, 1, 5, 10, 20, 30, 40, 50, 60, 70, 80, and 90 min (with t = 0 corresponding to the moment of injection) as shown in Figure 4. The determination of serum and cerebrospinal fluid (CSF) concentrations of PNA6 involved the utilization of a calibration curve, which accounted for factors such as dilution and probe recovery specific to each experimental condition.
Animals for Dialysis: Male Sprague Dawley rats (275–325 g) were used for dialysis experiments in vivo.
The compounds were injected intravenously at 10 mg/kg via a single tail vein injection. Blood draws were taken at t = −10, 1, 5, 10, 20, 30, 40, 50, 60, 70, 80, and 90 min (where t = 0 corresponds to injection). Microdialysis fractions were time-locked with blood draws at 10 min increments such that blood draws correlated with the median time of the microdialysis fraction. For microdialysis, a dual syringe pump (PHD 2000, Harvard Apparatus, Holliston, MA, USA) was set to a flow rate of 0.5 mL/minute. […]
Data set [6] has as its system Mas receptor (MasR1). As to conditions: cited from earlier work. The text has this:
The renin-angiotensin system (RAS) is a crucial player in regulating blood pressure and fluid homeostasis. The octapeptide, Angiotensin II, is the first significant end product. Angiotensin II binds strongly to G-coupled protein receptors (GPCRs), Angiotensin receptor type 1 (AT1), to produce vasoconstriction, sodium-water retention, inflammation, and fibrosis; and it binds weakly to Angiotensin II receptor type II (AT2), which produces vasodilation and angiogenesis. Angiotensin II is cleaved by Angiotensin-converting enzyme 2 (ACE2) to yield the heptapeptide, Ang-(1-7), which ha ...

Angiotensin-(1-7), sequence (P01019 whole entry, looked up): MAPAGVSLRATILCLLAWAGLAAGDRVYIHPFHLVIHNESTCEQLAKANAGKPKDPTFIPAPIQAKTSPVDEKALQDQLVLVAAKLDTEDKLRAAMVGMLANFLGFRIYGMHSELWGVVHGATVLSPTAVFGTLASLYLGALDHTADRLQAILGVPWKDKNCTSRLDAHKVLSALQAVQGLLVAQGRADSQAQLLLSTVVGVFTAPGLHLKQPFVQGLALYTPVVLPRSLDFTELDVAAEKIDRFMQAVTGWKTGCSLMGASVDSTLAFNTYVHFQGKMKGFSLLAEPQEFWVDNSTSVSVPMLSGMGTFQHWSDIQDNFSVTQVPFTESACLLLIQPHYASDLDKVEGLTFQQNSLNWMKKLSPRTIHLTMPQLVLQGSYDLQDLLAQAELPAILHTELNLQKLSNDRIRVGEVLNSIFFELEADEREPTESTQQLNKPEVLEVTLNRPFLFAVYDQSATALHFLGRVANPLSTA

For the compound Angiotensin-(1-7) (from UniProt P01019), the Kd in data set [1] was 0.83 nM.
Consider `CC[C@H](C)[C@H](NC(=O)[C@H](Cc1ccc(O)cc1)NC(=O)[C@@H](NC(=O)[C@H](CCCNC(=N)N)NC(=O)[C@@H](N)CC(=O)O)C(C)C)C(=O)N[C@@H](Cc1c[nH]cn1)C(=O)N[C@@H](CO[C@@H]1O[C@H](CO)[C@@H](O[C@@H]2O[C@H](CO)[C@H](O)[C@H](O)[C@H]2O)[C@H](O)[C@H]1O)C(N)=O` [PNA6, Asp-Arg-Val-Tyr-Ile-His-Ser-(O-β-Lact)-amide] (H-DRVYIHS(X1)-NH2), for which, in data set [2] (cancer-bearing mice, chronic treatment, radiographs day 14, n = 10–12), the “cancer-induced bone loss vs vehicle” value is listed as “did not exacerbate cancer-induced bone loss degradation”. Besides, the “bone remodeling in sham animals” value in data set [2] (sustained saline or PNA6, day 14) was “had no change in bone remodeling”. In data set [3], the “time spent on the rotating rod” value is “neither increased nor decreased the time”. Besides, the “penetration into the CNS” value in data set [4] ('has been shown') is reported as “good penetration into the CNS”. Further, in data set [5], the Tmax is 1 min and the half-life amounted to 22.1 min.
As to DRVYIHP [Ang-(1-7), Angiotensin-(1-7)], in data set [6] (greater selectivity over AT1), the “selectivity for MasR1 over AT1 receptor” value was 60 fold. Moreover, in data set [6] (greater selectivity over AT2), the “selectivity for MasR1 over AT2 receptor” value is listed as 100 fold. The half-life in vivo result in data set [4] (degraded rapidly by enzymes) is “short half-life in vivo”.

Source of the values: PMC10573977, “PNA6, a Lactosyl Analogue of Angiotensin-(1-7), Reverses Pain Induced in Murine Models of Inflammation, Chemotherapy-Induced Peripheral Neuropathy, and Metastatic Bone Disease” (International Journal of Molecular Sciences, 2023).
